Assay results published in patent publication US20100055145A1, “STENT COATINGS FOR REDUCING LATE STENT THROMBOSIS” (Biosensors International Group, priority 2008, published 2010).

Legend:
[1] = Partition coefficient (log P), reverse phase HPLC
[2] = tested on: proliferating animal and human smooth muscle cells; assay: Growth inhibition of smooth muscle cells in culture; format: cell-based; details: compared with sirolimus
Excerpt: Like sirolimus and everolimus, BIOLIMUS A9 is rapidly absorbed in tissues and is able to reversibly bind to immunophilins (cytoplasmic proteins) found inside living cells.

[3] = Solubility of BIOLIMUS A9; format: physicochemical

For `CCOCCO[C@@H]1CC[C@@H](C[C@@H](C)[C@@H]2CC(=O)[C@H](C)/C=C(\C)[C@@H](O)[C@@H](OC)C(=O)[C@H](C)C[C@H](C)/C=C/C=C/C=C(\C)[C@@H](OC)C[C@@H]3CC[C@@H](C)[C@@](O)(O3)C(=O)C(=O)N3CCCC[C@H]3C(=O)O2)C[C@H]1OC` [BIOLIMUS A9, 42-O-(2-ethoxyethyl)rapamycin], the peak blood levels (after stent implantation) was 3 ng/mL, the “peak blood level lower than therapeutic levels of oral sirolimus or everolimus following organ transplant” value (in vivo, po) was 20 fold and the “Partition Coefficient (E Log Poct): Log Pn-octanol” value ([1]; As measured by reverse phase HPLC) was “Log Pn-octanol = 7.63”. The “partition coefficient (log P)” value ([1]; pH 7.40, estimated) was 7.63, the “potency of growth inhibition of proliferating smooth muscle cells” value [2] was “potency similar to that of sirolimus” and the “Solubility: 25% ethanol in water” value ([3]; 25% ethanol in water) was “Practically insoluble”. The “Solubility: ethanol” value ([3]; ethanol) was “Very soluble”, the “Solubility: ethyl acetate” value ([3]; ethyl acetate) was “Very soluble” and the “Solubility: methanol” value ([3]; methanol) was “Very soluble”. For the same compound, the “Solubility: water (independent of pH)” value ([3]; water (independent of pH)) was “Practically insoluble”.
